# Test system: Vero mammalian cells
# Test: Cytotoxicity (MTT) on Vero cells
# Format: cell-based
# Details: Chlorocebus sabaeus, 24 h
# Experimental: Additionally, the cytotoxicity of the compounds on VERO mammalian cells was assessed (Table 4). […] It is observed that the majority of the derivatives present considerable cytotoxicity. […] RPMI 1640 medium) for 24 h. […] The effects of the compounds on trypomastigote and Vero cell viability were evaluated by tetrazolium salt reduction assay (MTT). […] The plates were kept overnight at 37 °C (28 °C for epimastigotes), and the optical density (OD) was determined using a 96-well microplate reader (Vantaa, Finland) at 570 nm. Under these conditions, the OD is directly proportional to each well’s viable number of cells. The experiments were performed in triplicate across three different assays.
row,Compound,IC50 [µM]
1,"CC1CS(=O)(=O)CCN1/N=C/c1ccc([N+](=O)[O-])o1 (stereo not shown) [Nfx, nifurtimox, reference compound]",172.9 ± 0.1

# Test system: not listed separately
# Test: Cyclic voltammetry (reduction of the nitro group)
# Format: physicochemical
# Design: key to −EpcI / −EpcII / −EpaII / −EpaI: potentials in V vs Ag/AgCl; |ΔEp|: unit not given here
# Details: cyclic voltammetry at 2.0 V/s
# Description: The chemistry mechanism of reduction in nitroisoxazole derivatives was investigated using cyclic voltammetry.
# The peak near −1.32 V corresponds to a quasi-reversible one-electron transfer, according to the criteria of Nicholson–Shain [26] (Table 1), attributable to the species −NO2/NO2.− . The latter species stable anion radical at room temperature. […] An irreversible peak at −0.93 V to the mono-electronic transfer −HNO2/HNO2.− is observed, coupled with a chemical reaction associated with […] of the formed radical. This was evidenced by the addition of NaOH (1 M), which caused a decrease in the Ic peak (Figure 2c).
# As previously described, an irreversible signal assigned to hydroxylamine oxidation to a nitroso derivative is also observed for N-acylhydrazones organometallic compounds with a pendant 5-nitrofuryl group. […] Compound 7, which has the least negative reduction potential, can be attributed to introducing a nitro group in the para position of the nitroisoxazole ring. This effect can also be observed in derivatives containing halogens in the same position.
# Electrochemical characterization of the new compounds was performed through cyclic voltammetry (CV) on a 693 VA Metrohm instrument (Tokyo, Japan) equipped with a 694 VA Stand converter and 693 VA processor. Potentials were recorded against the Ag/AgCl reference electrode; a hanging drop of mercury (HDME) was used as a working electrode, and platinum was used as an auxiliary electrode. Tetrabutylammonium perchlorate (TBAP, 0.1 M) in DMSO was used as a supporting electrolyte under an N2 atmosphere at room temperature. Using Nicholson´s procedure, the Ipa/Ipc values (RNO2/RNO2^−) were measured from each cyclic voltammogram with a scan rate between 0.1 and 2.5 V/s.
Compound,Ipa/Ipc,|ΔEp|
"Cc1noc(/C=C/c2ccccc2)c1[N+](=O)[O-] [Compound 4, (E)-3-Methyl-4-nitro-5-styrylisoxazole]",−0.09,90
"Cc1noc(/C=C/c2ccco2)c1[N+](=O)[O-] [Compound 10, (E)-5-(2-(Furan-2-yl)vinyl)-3-methyl-4-nitroisoxazole]",−0.16,100
"Cc1noc(/C=C/N(C)C)c1[N+](=O)[O-] [Compound 1, (E)-N,N-Dimethyl-2-(3-methyl-4-nitroisoxazol-5-yl)ethen-1-amine]",−0.44,140
"Cc1ccc(-n2cc(/C=C/c3onc(C)c3[N+](=O)[O-])c3ccccc32)cc1 [Compound 14, (E)-3-Methyl-4-nitro-5-(2-(1-(p-tolyl)-1H-indol-3-yl)vinyl)isoxazole]",−0.32,120
"Cc1noc(/C=C/N2CCCC2)c1[N+](=O)[O-] [Compound 2, (E)-3-Methyl-4-nitro-5-(2-(pyrrolidin-1-yl)vinyl)isoxazole]",0.32,120

# Same assay, conditions: cyclic voltammetry at 2.0 V/s, DMSO, 0.1 M TBAP, vs Ag/AgCl
Compound,−EpaII,−EpcII,−EpcI
"Cc1noc(/C=C/c2ccccc2)c1[N+](=O)[O-] [Compound 4, (E)-3-Methyl-4-nitro-5-styrylisoxazole]",0.80,0.89,–
"Cc1noc(/C=C/c2ccco2)c1[N+](=O)[O-] [Compound 10, (E)-5-(2-(Furan-2-yl)vinyl)-3-methyl-4-nitroisoxazole]",0.74,0.84,–
"Cc1noc(/C=C/N(C)C)c1[N+](=O)[O-] [Compound 1, (E)-N,N-Dimethyl-2-(3-methyl-4-nitroisoxazol-5-yl)ethen-1-amine]",1.19,1.33,–
"Cc1ccc(-n2cc(/C=C/c3onc(C)c3[N+](=O)[O-])c3ccccc32)cc1 [Compound 14, (E)-3-Methyl-4-nitro-5-(2-(1-(p-tolyl)-1H-indol-3-yl)vinyl)isoxazole]",0.84,0.96,0.72
"Cc1noc(/C=C/N2CCCC2)c1[N+](=O)[O-] [Compound 2, (E)-3-Methyl-4-nitro-5-(2-(pyrrolidin-1-yl)vinyl)isoxazole]",1.20,1.32,–

# Same assay, conditions: cyclic voltammogram, Figure 2a
row,Compound,"peak potential, quasi-reversible one-electron transfer −NO2/NO2.− [V]"
1,"Cc1noc(/C=C/N2CCCC2)c1[N+](=O)[O-] [Compound 2, (E)-3-Methyl-4-nitro-5-(2-(pyrrolidin-1-yl)vinyl)isoxazole]",~−1.32

# Test system: not listed separately
# Test: ORAC-FL antioxidant capacity
# Details: relative to Trolox; phosphate buffer 75 mM, pH 7.4, 37 °C
# Experimental: To corroborate the generation of the nitro radical, the antioxidant capacity of the series under study was determined by ORAC-FL methodology, employing a fluorescent probe to capture oxygen-centered radicals (Table 2). The ORAC-FL values of the studied compounds are close to the reference value of Trolox, indicating a low antioxidant capacity. For compounds (1-3), the presence of amino substituents decreases antioxidant activity due to their […] characteristics, preventing the presence of labile hydrogens. […] Compounds 4 and 10 present similar ORAC indexes as aromatic rings with high electron density insert the transfer of labile protons. Antioxidant capacity was determined using the ORAC-fluorescence methodology (ORAC-FL). The analysis used a 96-well white polystyrene plate reader (EnSpire multimode PerkinElmer, Waltham, MA, USA). The reaction was carried out in phosphate buffer (75 mM, pH 7.4). […] A blank with FL and AAPH, using dimethyl sulfoxide instead of the antioxidant solution, was used in each assay. […] The inhibitor capacity was expressed as ORAC-FL values and quantified by integrating the area under the curve (AUCNET). All reaction mixtures were prepared in triplicate, and at least three independent assays were performed for each sample. The area under the fluorescence decay curve (AUC) was calculated by integrating the fluorescence decay where F0 is the initial fluorescence read at 0 min, and F is the fluorescence read at the time. The AUCNET corresponding to the sample was calculated by subtracting the AUC corresponding to the blank. Data were processed using Origin […].5 SR2 (San Francisco, CA, USA). The ORAC-FL indices were calculated according to the following Equation (1): (1) ORAC-[…]]
row,Compound,ORAC-FL Index
1,"Cc1noc(/C=C/c2ccccc2)c1[N+](=O)[O-] [Compound 4, (E)-3-Methyl-4-nitro-5-styrylisoxazole]",0.33 ± 0.06
2,"Cc1noc(/C=C/c2ccco2)c1[N+](=O)[O-] [Compound 10, (E)-5-(2-(Furan-2-yl)vinyl)-3-methyl-4-nitroisoxazole]",0.36 ± 0.07
3,"Cc1noc(/C=C/N(C)C)c1[N+](=O)[O-] [Compound 1, (E)-N,N-Dimethyl-2-(3-methyl-4-nitroisoxazol-5-yl)ethen-1-amine]",0.9 ± 0.2
4,"Cc1ccc(-n2cc(/C=C/c3onc(C)c3[N+](=O)[O-])c3ccccc32)cc1 [Compound 14, (E)-3-Methyl-4-nitro-5-(2-(1-(p-tolyl)-1H-indol-3-yl)vinyl)isoxazole]",0.4 ± 0.1
5,"Cc1noc(/C=C/N2CCCC2)c1[N+](=O)[O-] [Compound 2, (E)-3-Methyl-4-nitro-5-(2-(pyrrolidin-1-yl)vinyl)isoxazole]",0.14 ± 0.05

# Test system: epimastigote of T. cruzi Dm28
# Test: Trypanocidal activity (MTT) on epimastigotes
# Format: cell-based
# Details: Trypanosoma cruzi, 100 µM, 24 h, n.a = not active, read-out: % T. cruzi Epimastigote (trypanocidal effect)
# Experimental: As a preliminary step, a study of nitroisoxazole derivatives on the epimastigote form of T. cruzi was performed. Despite the epimastigote form not being a clinical form present in mammals, its easy handling has allowed screening for the trypanocidal activity of various compounds. It is worth noting that, during the intracellular life cycle of the parasite, a form similar to the epimastigote, which is biochemically and morphologically identical to the form present in the vector, has been described. […] RPMI 1640 medium) for 24 h. […] The effects of the compounds on trypomastigote and Vero cell viability were evaluated by tetrazolium salt reduction assay (MTT). […] The plates were kept overnight at 37 °C (28 °C for epimastigotes), and the optical density (OD) was determined using a 96-well microplate reader (Vantaa, Finland) at 570 nm. Under these conditions, the OD is directly proportional to each well’s viable number of cells. The experiments were performed in triplicate across three different assays.
row,Compound,killing at 100 µM [%]
1,"Cc1noc(/C=C/c2ccccc2)c1[N+](=O)[O-] [Compound 4, (E)-3-Methyl-4-nitro-5-styrylisoxazole]",47 ± 4
2,"Cc1noc(/C=C/c2ccco2)c1[N+](=O)[O-] [Compound 10, (E)-5-(2-(Furan-2-yl)vinyl)-3-methyl-4-nitroisoxazole]",42 ± 2
3,"CC1CS(=O)(=O)CCN1/N=C/c1ccc([N+](=O)[O-])o1 (stereo not shown) [Nfx, nifurtimox, reference compound]",98.9 ± 0.3
4,"Cc1noc(/C=C/N(C)C)c1[N+](=O)[O-] [Compound 1, (E)-N,N-Dimethyl-2-(3-methyl-4-nitroisoxazol-5-yl)ethen-1-amine]",18 ± 1
5,"Cc1ccc(-n2cc(/C=C/c3onc(C)c3[N+](=O)[O-])c3ccccc32)cc1 [Compound 14, (E)-3-Methyl-4-nitro-5-(2-(1-(p-tolyl)-1H-indol-3-yl)vinyl)isoxazole]",27 ± 2
6,"Cc1noc(/C=C/N2CCCC2)c1[N+](=O)[O-] [Compound 2, (E)-3-Methyl-4-nitro-5-(2-(pyrrolidin-1-yl)vinyl)isoxazole]",19 ± 3

# Test system: trypomastigote of T. cruzi Dm28
# Test: Trypanocidal activity (MTT) on trypomastigotes
# Format: cell-based
# Details: Trypanosoma cruzi, 100 µM, 24 h, n.a = not active, read-out: % T. cruzi Trypomastigote (trypanocidal effect)
# Experimental: As a preliminary step, a study of nitroisoxazole derivatives on the epimastigote form of T. cruzi was performed. Despite the epimastigote form not being a clinical form present in mammals, its easy handling has allowed screening for the trypanocidal activity of various compounds. It is worth noting that, during the intracellular life cycle of the parasite, a form similar to the epimastigote, which is biochemically and morphologically identical to the form present in the vector, has been described. […] This is consistent with studies by Fonseca-Berzal et al. […] Additionally, compounds with higher activity have aromatic rings as substituents for nitroisoxazoles, confirming what was described Do […] [40]. […] It has also been determined that the presence of an isoxazole is essential for activity, as its aromatic structure contains a weak nitrogen-oxygen bond that, under different reaction conditions, can undergo ring cleavage, increasing activity. The results obtained on epimastigotes cannot be conclusive for determining potential Chagas agents, so conducting studies on the infective, extracellular, non-replicative trypomastigote form of T. cruzi present in humans is essential. […] RPMI 1640 medium) for 24 h. […] The effects of the compounds on trypomastigote and Vero cell viability were evaluated by tetrazolium salt reduction assay (MTT). […] The plates were kept overnight at 37 °C (28 °C for epimastigotes), and the optical density (OD) was determined using a 96-well microplate reader (Vantaa, Finland) at 570 nm. Under these conditions, the OD is directly proportional to each well's viable number of cells. The experiments were performed in triplicate across three different assays.
row,Compound,killing at 100 µM [%]
1,"Cc1noc(/C=C/c2ccccc2)c1[N+](=O)[O-] [Compound 4, (E)-3-Methyl-4-nitro-5-styrylisoxazole]",0
2,"CC1CS(=O)(=O)CCN1/N=C/c1ccc([N+](=O)[O-])o1 (stereo not shown) [Nfx, nifurtimox, reference compound]",74 ± 1
3,"Cc1ccc(-n2cc(/C=C/c3onc(C)c3[N+](=O)[O-])c3ccccc32)cc1 [Compound 14, (E)-3-Methyl-4-nitro-5-(2-(1-(p-tolyl)-1H-indol-3-yl)vinyl)isoxazole]",3 ± 1

# Same assay, conditions: Trypanosoma cruzi, T. cruzi Dm28, 24 h
row,Compound,IC50 [µM]
1,"CC1CS(=O)(=O)CCN1/N=C/c1ccc([N+](=O)[O-])o1 (stereo not shown) [Nfx, nifurtimox, reference compound]",10.04 ± 0.1

# Test system: not given
# Test: not given
# Details: not given
row,Compound,melting point [°C]
1,"Cc1noc(/C=C/c2ccccc2)c1[N+](=O)[O-] [Compound 4, (E)-3-Methyl-4-nitro-5-styrylisoxazole]",176 to 178
2,"Cc1noc(/C=C/c2ccco2)c1[N+](=O)[O-] [Compound 10, (E)-5-(2-(Furan-2-yl)vinyl)-3-methyl-4-nitroisoxazole]",145 to 147
3,"Cc1noc(/C=C/N(C)C)c1[N+](=O)[O-] [Compound 1, (E)-N,N-Dimethyl-2-(3-methyl-4-nitroisoxazol-5-yl)ethen-1-amine]",154 to 156
4,"Cc1ccc(-n2cc(/C=C/c3onc(C)c3[N+](=O)[O-])c3ccccc32)cc1 [Compound 14, (E)-3-Methyl-4-nitro-5-(2-(1-(p-tolyl)-1H-indol-3-yl)vinyl)isoxazole]",208 to 211
5,"Cc1noc(/C=C/N2CCCC2)c1[N+](=O)[O-] [Compound 2, (E)-3-Methyl-4-nitro-5-(2-(pyrrolidin-1-yl)vinyl)isoxazole]",145 to 147
